# Test results: PMC6835510, “Magnificamide, a β-Defensin-Like Peptide from the Mucus of the Sea Anemone Heteractis magnifica, Is a Strong Inhibitor of Mammalian α-Amylases” (Marine Drugs, 2019)
# Bridge positions count the residues as written; N and C are the ends. Ends that are not written are not given here.
# Tests used:
# hKv10.1 = assay: Two-electrode voltage-clamp; format: cell-based, mammalian; conditions: 10 µM; Xenopus laevis oocytes; 18–22 °C
# Text: (§1) For the expression of Nav channels (mammalian rNav1.2, rNav1.4, hNav1.5, mNav1.6 and hNav1.8 channels; the insect channel BgNav1 from Blattella germanica; and the auxiliary subunits rβ1, hβ1, and TipE) and Kv channels (mammalian rKv1.1, rKv1.2, hKv1.3, rKv1.4, rKv1.5, rKv1.6, rKv2.1, hKv3.1, rKv4.2, hKv10.1, and hERG; and Drosophila Shaker’s IR) in Xenopus laevis oocytes; the linearized plasmids were transcribed using the T7 or SP6 mMESSAGE-mMACHINE transcription kit (Ambion, Carlsbad, CA, USA). The harvesting of stage V–VI oocytes from anesthetized female Xenopus laevis frog was previously described. Oocytes were injected with 50 nL of cRNA at a concentration of 1 ng/nL using a microinjector (Drummond Scientific, Broomall, PA, USA). The oocytes were incubated in a solution containing 96-mM NaCl, 2-mM KCl, 1.8-mM CaCl2, 2-mM MgCl2, and 5-mM HEPES (pH 7.4), supplemented with 50 mg/L gentamycin sulfate.
# (§2) Two-electrode voltage-clamp recordings were performed at room temperature (18–22 °C) using a Geneclamp 500 amplifier (Molecular Devices, Downingtown, PA, USA) controlled by a pClamp data acquisition system (Axon Instruments, Union City, CA, USA). Whole cell currents from oocytes were recorded 1–4 days after injection. The bath solution’s composition was 96-mM NaCl, 2-mM KCl, 1.8-mM CaCl2, 2-mM MgCl2, and 5-mM HEPES (pH 7.4). Toxins were applied directly to the bath. Resistances of both electrodes were kept between 0.8 and 1.5 MΩ. The elicited currents were sampled at 20 kHz (Nav) or 2 kHz (Kv), filtered at 2 kHz (Nav) or 0.5 kHz (Kv) using a four-pole low-pass Bessel filter. Leak subtraction was performed using a -P/4 protocol. […] For the electrophysiological analysis, a number of protocols were applied from a holding potential of −90 mV with a start-to-start interval of 0.2 Hz. Kv1.1–Kv1.6 and Shaker currents were evoked by 250-ms depolarizations to 0 mV followed by a 250 ms pulse to −50 mV from a holding potential of −90 mV. Current traces of hERG channels were elicited by applying a +40 mV prepulse for 2 s followed by −120 mV for 2 s. Kv2.1, Kv3.1, and Kv4.2 currents were elicited by 250 ms pulses to +20 mV from a holding potential of −90 mV. Kv10.1 currents were evoked by 2-s depolarizing pulses to 0 mV from a holding potential of −90 mV. Sodium current traces were evoked by 100-ms depolarization to the voltage corresponding to maximal sodium current in control conditions. All data were analyzed using pClamp Clampfit 10.0 (Molecular Devices, Downingtown, PA, USA) and Origin 7.5 software (Originlab, Northampton, MA, USA).
# mNav1.6 = assay: Two-electrode voltage-clamp; format: cell-based, mammalian; conditions: 10 µM; Xenopus laevis oocytes; 18–22 °C
# Text: as §1, §2
# rNav1.2 = assay: Two-electrode voltage-clamp; format: cell-based, mammalian; conditions: 10 µM; Xenopus laevis oocytes; 18–22 °C
# Text: as §1, §2
# rKv2.1 = assay: Two-electrode voltage-clamp; format: cell-based, mammalian; conditions: 10 µM; Xenopus laevis oocytes; 18–22 °C
# Text: as §1, §2
# rKv1.6 = assay: Two-electrode voltage-clamp; format: cell-based, mammalian; conditions: 10 µM; Xenopus laevis oocytes; 18–22 °C
# Text: as §1, §2
# hNav1.5 = assay: Two-electrode voltage-clamp; format: cell-based, mammalian; conditions: 10 µM; Xenopus laevis oocytes; 18–22 °C
# Text: as §1, §2
# rKv4.2 = assay: Two-electrode voltage-clamp; format: cell-based, mammalian; conditions: 10 µM; Xenopus laevis oocytes; 18–22 °C
# Text: as §1, §2
# rNav1.4 = assay: Two-electrode voltage-clamp; format: cell-based, mammalian; conditions: 10 µM; Xenopus laevis oocytes; 18–22 °C
# Text: as §1, §2
# [1] = molecular target: T1, porcine pancreatic α-amylase (PPA) (Sus scrofa, UniProt P00690); assay: Determination of Ki against porcine pancreatic α-amylase (Morrison); format: biochemical; conditions: 37 °C, 50 mM sodium phosphate, 100 mM NaCl, pH 7.0; CNPG3 1 mM (KM 0.71 mM), nominal [E] 20 nM; 10 min pre-incubation; 405 nm; Morrison fit, competitive mode assumed; mean ± SE (n = 3)
# T1 construct: purchased Sigma Aldrich A4268
# T1 sequence (P00690 16-511): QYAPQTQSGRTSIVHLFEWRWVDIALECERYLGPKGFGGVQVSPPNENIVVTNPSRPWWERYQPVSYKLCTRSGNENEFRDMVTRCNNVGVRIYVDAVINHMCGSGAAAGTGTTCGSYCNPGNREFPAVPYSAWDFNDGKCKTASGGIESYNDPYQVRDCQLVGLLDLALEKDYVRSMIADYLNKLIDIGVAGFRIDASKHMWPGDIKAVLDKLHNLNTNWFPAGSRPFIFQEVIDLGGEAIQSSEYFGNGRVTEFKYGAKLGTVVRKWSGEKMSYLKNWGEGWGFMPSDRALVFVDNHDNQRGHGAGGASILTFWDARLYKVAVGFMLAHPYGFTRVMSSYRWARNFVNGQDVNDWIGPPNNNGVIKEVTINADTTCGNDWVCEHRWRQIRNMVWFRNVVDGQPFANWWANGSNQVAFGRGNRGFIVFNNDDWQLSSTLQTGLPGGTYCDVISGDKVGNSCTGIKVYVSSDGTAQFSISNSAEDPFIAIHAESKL
# Experimental: For a quantitative assessment of tight-binding inhibitor potency, Morrison’s method was applied. This method uses the Morrison quadratic equation (Equation (1)) for fitting inhibitor-response data and determining Ki app as a nonlinear regression parameter. (1) υ/υo=1−([E]+[I]+Kiapp)−([E]+[I]+Kiapp)^2−4[E][I]/2[E]o
# Kinetic assays were carried out at 37 °C in 50 mM sodium phosphate and 100 mM sodium chloride (pH 7.0). 2-Chloro-4-nitrophenyl-α-maltotrioside (CNPG3) (Sigma Aldrich, St. Louis, MO, USA) was used as the substrate and the optical absorption of the 2-chloro-4-nitrophenol was measured at 405 nm. Reactions were run with final [CNPG3] = 1 mM ([S]/KM = 1.41, KM = 0.71 mM), nominal [E] = 20 nM for PPA, [CNPG3] = 3.3 mM ([S]/KM = 0.97, KM = 3.4 mM), and nominal [E] = 100 nM for HSA to provide sufficient analytical signal. Inhibitor dilution schemes were optimized considering recommendations in [34].
# The enzyme was pre-incubated with the inhibitor for 10 minutes before the addition of substrate which launched the reaction. Reactions were monitored on an xMark microplate spectrophotometer (BioRad, USA) in the kinetic mode for 30 min. The initial linear steady state region provided initial rate values for each inhibitor concentration (υ), along with uninhibited rate values (υo). Measurements were run in triplicate. […]
sequence,measurement,setting,value
"SEGTSCYIYHGVYGICKAKCAEDMKAMAGMGVCEGDLCCYKTPW (disulfide 6-38, 16-33, 20-39) [r-magnificamide]","Channel modulating activity, Kv10.1",hKv10.1,Not active
same,"Channel modulating activity, Nav1.6",mNav1.6,Not active
same,"Channel modulating activity, Nav1.2",rNav1.2,Not active
same,"Channel modulating activity, Kv2.1",rKv2.1,Not active
same,"Channel modulating activity, Kv1.6",rKv1.6,Not active
same,"Channel modulating activity, Nav1.5",hNav1.5,Not active
same,"Channel modulating activity, Kv4.2",rKv4.2,Not active
same,"Channel modulating activity, Nav1.4",rNav1.4,Not active
same,Ki,[1],0.17 ± 0.06 nM
